Measurements: ChEMBL document CHEMBL1140285, “Synthesis and ocular effects of imidazole nitrolic acids” (2005)
Calls of active or inactive are those of the source. No cut-off for these calls is given here.

Legend:
Oryctolagus cuniculus [1] = assay: Increase in cGMP concentration in aqueous humor after intravitreal administration of compound in rabbits; control value is 9.17; assay type: functional, Aqueous humor of eyeball
Oryctolagus cuniculus [2] = assay: Increase in NOx concentration in plasma after intravitreal administration of compound in rabbits; control value is 408.59; assay type: functional
Sus scrofa [3] = assay: Increase in nitrite concentration in porcineiris-ciliary body after administration of compound at the concentrations of 10 uM; control value is 0.15
Sus scrofa [4] = assay: Increase in cGMP concentration in porcineiris-ciliary body after administration of compound at the concentrations of 10 uM; control value is 0.46
Oryctolagus cuniculus [5] = assay: Maximal decrease in IOP observed with […] after intravitreal administration of the compound at the concentration of 20 mM; assay type: functional
Sus scrofa [6] = assay: Increase in NOx concentration in porcineiris-ciliary body after administration of compound at the concentrations of 10 uM; control value is 0.36
Oryctolagus cuniculus [7] = assay: Increase in NOx concentration in aqueous humor after intravitreal administration of compound in rabbits; control value is 500.86; assay type: functional, Aqueous humor of eyeball
Sus scrofa [8] = assay: Increase in cGMP concentration in porcineiris-ciliary body after administration of compound at the concentrations of 100 uM; control value is 0.46
Sus scrofa [9] = assay: Increase in NOx concentration in porcineiris-ciliary body after administration of compound at the concentrations of 100 uM; control value is 0.36
Oryctolagus cuniculus [10] = assay: Increase in nitrite concentration in plasma after intravitreal administration of compound in rabbits; control value is 0.98; assay type: functional
Oryctolagus cuniculus [11] = assay: Increase in nitrite concentration in aqueous humor after intravitreal administration of compound in rabbits; control value is 1.32; assay type: functional, Aqueous humor of eyeball
Sus scrofa [12] = assay: Increase in nitrite concentration in porcineiris-ciliary body after administration of compound at the concentrations of 100 uM; control value is 0.15
Oryctolagus cuniculus [13] = assay: Maximal decrease in IOP observed with in 24 hours after intravitreal administration of the compound; NE is no effect on IOP; assay type: functional, organism-based
Oryctolagus cuniculus [14] = assay: Increase in nitrite concentration in porcineiris-ciliary body after administration of compound at the concentrations of 10 uM and 100 uM; control value is 0.15; NE is no effect on IOP; assay type: functional
Oryctolagus cuniculus [15] = assay: Increase in NOx concentration in porcineiris-ciliary body after administration of compound at the concentrations of 10 uM and 100 uM; control value is 0.36; NE is no effect on IOP; assay type: functional
Oryctolagus cuniculus [16] = assay: Maximal decrease in IOP observed with in 24 hours after intravitreal administration of the compound; NE is no effect; assay type: functional, organism-based
Oryctolagus cuniculus [17] = assay: Increase in NOx concentration in porcineiris-ciliary body after administration of compound at the concentrations of 10 uM and 100 uM; NE is no effect; assay type: functional
Oryctolagus cuniculus [18] = assay: Maximal decrease in IOP observed with in 24 hours after intravitreal administration of the compound;NE is no effect on IOP; assay type: functional, organism-based
Oryctolagus cuniculus [19] = assay: Increase in NOx concentration in porcineiris-ciliary body after administration of compound at the concentrations of 10 uM and 100 uM; control value is 0.36; assay type: functional
Oryctolagus cuniculus [20] = assay: Increase in NOx concentration in aqueous humor after intravitreal administration of compound in rabbits; control value is 450.31; assay type: functional, Aqueous humor of eyeball
Oryctolagus cuniculus [21] = assay: Maximal decrease in IOP observed with in 24 hours after intravitreal administration of the compound at the concentration of 20 mM; assay type: functional
Oryctolagus cuniculus [22] = assay: Increase in nitrite concentration in aqueous humor after intravitreal administration of compound in rabbits; control value is 2.40; assay type: functional, Aqueous humor of eyeball
Oryctolagus cuniculus [23] = assay: Increase in cGMP concentration in aqueous humor after intravitreal administration of compound in rabbits; control value is 14.31; assay type: functional, Aqueous humor of eyeball
Oryctolagus cuniculus [24] = assay: Increase in NOx concentration in plasma after topical administration of compound in rabbits; control value is 408.59; assay type: functional
Oryctolagus cuniculus [25] = assay: Increase in NOx concentration in aqueous humor after topical administration of compound in rabbits; control value is 309.09; assay type: functional, Aqueous humor of eyeball
Oryctolagus cuniculus [26] = assay: Increase in nitrite concentration in plasma after topical administration of compound in rabbits; control value is 0.98; assay type: functional
Oryctolagus cuniculus [27] = assay: Increase in cGMP concentration in aqueous humor after topical administration of compound in rabbits; control value is 16.10; assay type: functional, Aqueous humor of eyeball
Oryctolagus cuniculus [28] = assay: Increase in nitrite concentration in aqueous humor after topical administration of compound in rabbits; control value is 1.31; assay type: functional, Aqueous humor of eyeball

Compound | Increase in concentration (Sus scrofa [3]) [µM] | cGMP concentration (Sus scrofa [4]) [pmol/mg prot.] | Increase in concentration (Sus scrofa [6]) [µM] | cGMP concentration (Sus scrofa [8]) [pmol/mg prot.] | Increase in concentration (Sus scrofa [9]) [µM] | Increase in concentration (Sus scrofa [12]) [µM] | Maximal decrease in IOP (Oryctolagus cuniculus [13]) | also measured
Cn1cncc1/C(=N/O)[N+](=O)[O-].O=[N+]([O-])O | 2.68 | 1.01 | 4.87 | 2.76 | 51.95 | 28.05 |  | Increase in concentration (Oryctolagus cuniculus [1]): 9.41 pmol/mg prot.; Increase in concentration (Oryctolagus cuniculus [2]): 425.49 µM; Maximal decrease in IOP (Oryctolagus cuniculus [5]): -4 mmHg; Increase in concentration (Oryctolagus cuniculus [7]): 524.29 µM; Increase in concentration (Oryctolagus cuniculus [10]): 0.75 µM; Increase in concentration (Oryctolagus cuniculus [11]): 10.32 µM
O=[N+]([O-])/C(=N\O)c1c[nH]c(-c2ccccc2)n1 |  |  |  |  |  |  | No effect | 
O/N=C/c1cncn1Cc1ccccc1 [listing 1 of 2 here] |  | 0.3 |  |  |  |  |  | 
O/N=C/c1cncn1Cc1ccccc1 [listing 2 of 2 here] |  |  |  |  |  |  | No effect | Increase in concentration (Oryctolagus cuniculus [14]): No effect; Increase in concentration (Oryctolagus cuniculus [15]): No effect
Cn1cncc1/C(=N/O)[N+](=O)[O-] [listing 1 of 2 here] |  |  |  |  |  |  | No effect | 
Cl.O/N=C/c1cncn1Cc1ccccc1 |  | 0.58 | 1.97 | 0.58 | 2.21 |  |  | 
O=[N+]([O-])/C(=N\O)c1ncc[nH]1 |  |  |  |  |  |  |  | Maximal decrease in IOP (Oryctolagus cuniculus [16]): inactive; Increase in concentration (Oryctolagus cuniculus [17]): inactive
Cn1cncc1C=O | 0.34 | 0.38 | 0.63 | 0.5 | 0.09 | 0.62 | No effect | 
Cc1[nH]cnc1/C(=N/O)[N+](=O)[O-] | 3.62 | 0.6 | 3.06 | 1.22 | 30.62 | 31.22 |  | Maximal decrease in IOP (Oryctolagus cuniculus [18]): No effect
O=Cc1cncn1Cc1ccccc1 |  | 0.3 |  | 0.38 |  |  | No effect | Increase in concentration (Oryctolagus cuniculus [14]): No effect; Increase in concentration (Oryctolagus cuniculus [15]): No effect
Cn1cncc1/C(=N/O)[N+](=O)[O-] [listing 2 of 2 here] | 3.46 | 0.87 | 3.38 | 1.19 | 29.96 | 32.07 |  | 
Cn1cncc1/C=N/O |  | 0.51 |  | 0.58 |  |  | No effect | Increase in concentration (Oryctolagus cuniculus [14]): No effect; Increase in concentration (Oryctolagus cuniculus [15]): No effect
O=[N+]([O-])/C(=N\O)c1c[nH]cn1 | 0.18 | 0.51 |  | 0.55 |  | 0.18 |  | Increase in concentration (Oryctolagus cuniculus [2]): 469.42 µM; Increase in concentration (Oryctolagus cuniculus [19]): No effect; Increase in concentration (Oryctolagus cuniculus [20]): 451.94 µM; Maximal decrease in IOP (Oryctolagus cuniculus [21]): -7.3 mmHg; Increase in concentration (Oryctolagus cuniculus [22]): 2.49 µM; Increase in concentration (Oryctolagus cuniculus [23]): 21.77 pmol/mg prot.; Increase in concentration (Oryctolagus cuniculus [10]): 1.38 µM
O=[N+]([O-])/C(=N\O)c1cncn1Cc1ccccc1 | 2.15 | 0.46 | 2.01 | 3.29 | 24.6 | 24.44 | No effect | Increase in concentration (Oryctolagus cuniculus [24]): 379.43 µM; Increase in concentration (Oryctolagus cuniculus [25]): 302.19 µM; Increase in concentration (Oryctolagus cuniculus [26]): 0.87 µM; Increase in concentration (Oryctolagus cuniculus [27]): 16.79 pmol/mg prot.; Increase in concentration (Oryctolagus cuniculus [28]): 1.61 µM
